# Article PMC4721540, “Selective activators of protein phosphatase 5 target the auto-inhibitory mechanism” (Bioscience Reports, 2015)
# Changes are numbered by the printed parent chain. Entries after “also recorded” stand apart in the source; their conditions may differ.
# Tests used:
# physchem = type: physicochemical; conditions: 20 °C, pH 7.5, aqueous buffer
# Experimental: (§1) Phosphatase assays for characterization of PP5 and PPH-5 properties were performed in 40 mM HEPES/KOH, 20 mM KCl, 5 mM MnCl2, 1 mM DTT, pH 7.5 and 60 mM pNPP at 20°C if not indicated otherwise. Phosphatase concentrations ranged from 50 to 500 nM in the assay. If indicated, the CeHsp90/DAF-21 peptide AEEDASRMEEVD was supplemented in the assay at a concentration of 60 μM. […] These concentrations were 70 μM for P5SA-1, 140 μM for P5SA-2, 50 μM for P5SA-3, 100 μM for P5SA-4 and 45 μM for P5SA-5.
# PP5 = biological target: T1, PP5 (Rattus norvegicus, UniProt P53042); assay: pNPP phosphatase assay with rat PP5; type: biochemical, R. norvegicus; conditions: for fold activation: PP5 (R. norvegicus)
# T1 construct: His tag (inferred from pET28 vector and HisTrap purification); made in house; host or cells: E. coli BL21-CodonPlus (DE3)-RIL
# T1 sequence (P53042 1-499): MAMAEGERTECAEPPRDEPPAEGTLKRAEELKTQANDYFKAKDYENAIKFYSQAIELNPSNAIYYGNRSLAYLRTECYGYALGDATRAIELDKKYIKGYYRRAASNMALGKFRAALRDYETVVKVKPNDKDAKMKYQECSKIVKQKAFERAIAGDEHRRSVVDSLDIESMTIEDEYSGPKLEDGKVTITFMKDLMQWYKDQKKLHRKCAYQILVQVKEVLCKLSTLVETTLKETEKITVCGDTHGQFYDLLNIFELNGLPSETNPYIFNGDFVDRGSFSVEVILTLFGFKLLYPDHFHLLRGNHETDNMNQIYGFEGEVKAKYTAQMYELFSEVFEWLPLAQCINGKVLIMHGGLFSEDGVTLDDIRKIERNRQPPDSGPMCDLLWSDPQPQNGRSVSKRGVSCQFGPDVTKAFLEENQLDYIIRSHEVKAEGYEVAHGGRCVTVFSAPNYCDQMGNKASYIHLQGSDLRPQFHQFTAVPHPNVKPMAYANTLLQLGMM
# Experimental: as §1
# PPH-5 [1] = biological target: T2, PPH-5 (Caenorhabditis elegans, UniProt Q9NES8); assay: pNPP phosphatase assay with nematode PPH-5; type: biochemical, C. elegans; conditions: for kcat / fold activation: PPH-5 (C. elegans); for kcat: 60 mM pNPP, in presence of compound; for fold activation: based on kcat compared with PPH-5 basal activity; for activation of PPH-5 phosphatase activity: substances at 50 ng/ml, DMSO control
# T2 construct: made in house
# T2 sequence (Q9NES8 1-496): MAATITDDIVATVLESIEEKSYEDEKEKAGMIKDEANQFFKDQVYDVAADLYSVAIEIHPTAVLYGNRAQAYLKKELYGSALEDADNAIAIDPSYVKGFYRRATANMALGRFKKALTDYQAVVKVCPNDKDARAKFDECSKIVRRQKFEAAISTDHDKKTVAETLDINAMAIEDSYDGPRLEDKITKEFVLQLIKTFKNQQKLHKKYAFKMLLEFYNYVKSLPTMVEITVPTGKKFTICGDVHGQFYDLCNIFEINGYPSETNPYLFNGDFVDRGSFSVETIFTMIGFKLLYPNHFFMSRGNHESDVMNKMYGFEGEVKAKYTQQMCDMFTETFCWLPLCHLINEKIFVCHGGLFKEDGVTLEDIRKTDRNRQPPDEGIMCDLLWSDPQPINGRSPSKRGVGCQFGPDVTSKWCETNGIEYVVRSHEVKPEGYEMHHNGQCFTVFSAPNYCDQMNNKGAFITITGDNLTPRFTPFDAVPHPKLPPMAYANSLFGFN
# Experimental: The compound library consisting of 10000 compounds (New Chemistry and Discovery Chemistry Collection, ChemDiv) was screened using a chromometric phosphatase assay with para-nitrophenyl phosphate (pNPP) as substrate. Phosphatase activity was determined by the conversion of pNPP to para-nitrophenole and absorption of the product at 410 nm (ε: 15100 cm^−1 M^−1). Assays were performed in 96-well plates in a PerkinElmer EnVision instrument with 50 nM of PPH-5. Reaction volume was 100 μl in a buffer of 40 mM HEPES, pH 7.5, 20 mM KCl, 5 mM MnCl2 and 1 mM DTT. The reaction was started by adding pNPP to a final concentration of 60 mM. The slope of the reaction was determined and deviations of >30% were considered potential hits leading to a collection of 76 initial compounds. […] These 76 compounds were maintained and rescreened individually in a Varian Cary 100 spectrophotometer (Agilent Technologies) in Hellma SUPRASIL precision quarz cells (10-mm path length) and 140 μl of reaction volumes. Finally, five compounds were obtained as reproducible activators and selected for further characterization.
# as §1
# PPH-5 [2] = biological target: T2, PPH-5; assay: Relaxation-edited NMR binding to PPH-5; design: species or system C. elegans; conditions: 10 μM PPH-5, phosphate buffer, 20°C, no substrate
# Experimental: NMR experiments were performed on an 800 MHz spectrometer (Bruker) with cryoprobe. The measurements were done in ^2H2O with phosphate buffer (4 mM KH2PO4, 16 mM Na2HPO4, 120 mM NaCl, pH 7.4) and 1%–5% of d6-DMSO. P5SA-2 without protein was recorded in high sensitivity experiments with a high number of scans. The CPMG sequence with an additional Watergate to suppress residual water was used. The T2 filtering time was set to 400 ms to suppress signals from slowly tumbling molecules. Peak intensities were normalized by comparing residual DMSO peaks. PPH-5 was added as indicated.
# PP5 428–430/455–457 = biological target: T3, PP5 428–430/455–457 (Rattus norvegicus, UniProt P53042, E428A/K430A/M455A/N457A/V429A); assay: pNPP phosphatase assay with PP5 428–430/455–457 mutant; type: biochemical; conditions: compound at 100 μM
# T3 construct: made in house; host or cells: E. coli BL21-CodonPlus (DE3)-RIL
# T3 sequence (P53042 1-499 E428A/V429A/K430A/M455A/N457A): T1 sequence (P53042 1-499) with E428A, V429A, K430A, M455A, N457A
# Experimental: (§2) Cloning and purification of PPH-5 (protein phosphatase homologue), CeHsp90/DAF-21 (abnormal DAuer formation), YFP-CeHsp90/DAF-21, BAG-1 (Bcl-2 associated athanogene-1), DNJ-13 (DNJ-13 homologue) and CeHsc70 (C. elegans heat shock cognate 70) were performed as described before. The human phosphatases PP1, PP2A and PP2B/PP3 were purified as described. The expression clones of rat PP5, PP5-ΔN165 (166–499) and PP5-ΔC8 (1–491) were generated by PCR and insertion of the DNA into the pET28 vector. Expression clones of PP5 428–430, which contains A^428-A^429-A^430 instead of E^428-V^429-K^430 and PP5 […], which contains A^428-A^429-A^430 instead of E^428-V^429-K^430 and A^455-G^456-A^457 instead of M^455-G^456-N^457, were also generated by PCR using primer sequences containing the modified codons. PCR-products were inserted into the pET28b expression plasmid (Merck) and verified by DNA sequencing (GATC Biotech). Proteins were expressed in BL21-CodonPlus (DE3)-RIL bacteria (Stratagene). Bacterial cultures were grown to a D600 of 0.8 and induced with 1 mM IPTG. Cells were disrupted using a cell disruption machine (IUL Instruments) and the lysate was loaded on to a HisTrap FF column (GE Healthcare). […] Protein purity was assessed by SDS/PAGE and the molecular mass was determined on an UltraFlex III MALDI-TOF/TOF mass spectrometer (Bruker). […]
# PP5 428–430 = biological target: T4, PP5 428–430 (Rattus norvegicus, UniProt P53042, E428A/K430A/V429A); assay: pNPP phosphatase assay with PP5 428–430 mutant; type: biochemical; conditions: compound at 100 μM
# T4 construct: made in house; host or cells: E. coli BL21-CodonPlus (DE3)-RIL
# T4 sequence (P53042 1-499 E428A/V429A/K430A): T1 sequence (P53042 1-499) with E428A, V429A, K430A
# Experimental: as §2
# [3] = biological target: T5, PPH-5 - CeHsp90/DAF-21 complex (Caenorhabditis elegans, UniProt Q9NES8); assay: Analytical ultracentrifugation of PPH-5/YFP-Hsp90 complex formation; type: binding, C. elegans; conditions: peptide 60 μM
# T5 construct: made in house
# Experimental: Binding of Hsp90 to PPH-5 was analysed by analytical ultracentrifugation with fluorescence detection as described before. Experiments were performed in a Beckman ProteomeLab XL-A analytical ultracentrifuge (Beckman) equipped with an AU-FDS detector (Aviv Biomedical). Analytical ultracentrifugation (AUC) runs were performed in 40 mM HEPES/KOH, pH 7.5, 20 mM KCl, 1 mM DTT. The concentration of labelled YFP–Hsp90 was 300 nM and 3 μM of PPH-5 were added to form a complex with YFP–Hsp90. Where indicated 60 μM of the C-terminal Hsp90/DAF-21 peptide (AEEDASRMEEVD) was present in the sample. Centrifugation was performed at 20°C and 142000 g for 12 h. Scans were recorded every 90 s. Data analysis was performed using a dc/dt approach according to Stafford. The dc/dt plots were fit to Gaussian functions in order to obtain the s20,w values of the respective species as described previously. P5SAs were added as indicated.
Compound,solubility (physchem) [µM],fold activation (PP5; compound at 100 μM),kcat (PPH-5 [1]) [s⁻¹],fold activation (PPH-5 [1]),activation of PPH-5 phosphatase activity (PPH-5 [1]),direct binding to PPH-5 by NMR (PPH-5 [2]),stimulation of PP5 428–430/455–457 (PP5 428–430/455–457),stimulation of PP5 428–430 (single-loop mutant) (PP5 428–430),fold activation (PP5; compound at 30 μM (solubility limited)),stimulation of full-length rat PP5 at lower concentration (PP5; compound at 10 μM),"influence of MEEVD-containing peptide on apparent affinity of activator (PPH-5 [1]; PPH-5, 60 μM MEEVD-containing peptide)","effect on complex formation between PPH-5 and YFP–Hsp90 ([3]; 300 nM YFP–Hsp90, 3 μM PPH-5, P5SAs at maximal soluble concentration)","sedimentation coefficient s20,w of YFP–Hsp90 with PPH-5 in presence of substance ([3]; complex without substance 8.9 S, YFP–Hsp90 alone 6.8 S) [S]"
FC(F)(F)c1c2c(nc3c(-c4ccc(Cl)cc4)cnn13)CCC2 [P5SA-1],70,4.1,2.28 ± 0.28,3.7,activate PPH-5,,,,,,,,
COc1ccc(-c2nc(Cc3ccc(Cl)cc3)no2)cc1OC [P5SA-2],140,3.9,1.99 ± 0.43,3.2,activate PPH-5,confirms binding of P5SA-2 to PPH-5,could not observe any stimulation,no activation could be achieved,,,,,
CN1CCc2c(sc(-n3cccc3)c2CNC(=O)NC23CC4CC(CC(C4)C2)C3)C1 [P5SA-3],50,,,4.0,activate PPH-5,,,,2.9,,,,
O=c1cc2nc(-c3ccc(F)cc3)nc(SCc3ccc(Br)cc3)n2[nH]1 [P5SA-4],100,3.0,4.85 ± 0.43,7.8,activate PPH-5,,,,,,,,
CNC(=O)c1c(NC(=O)COCC(=O)Nc2sc3c(c2C(=O)NC)CCC3)sc2c1CCC2 [P5SA-5],45,8.6,5.22 ± 0.67,8.4,activate PPH-5,,could not detect stimulation; also recorded: did not stimulate the catalytic activity,did not stimulate the catalytic activity,,effect at the lower concentration was detectable,only a minor influence on the apparent affinity,,
"AEEDASRMEEVD [MEEVD peptide, C-terminal Hsp90/DAF-21 peptide from Biomatik, used as control to disrupt the PPH-5–Hsp90 complex]",,,,,,,,,,,,complex formation is strongly reduced,7.6
